Assay results published in patent US9221839B2, “C5-C6 oxacyclic-fused thiadiazine dioxide compounds as BACE inhibitors, compositions, and their use” (Merck Sharp & Dohme Corp., priority 2011, dated 2015).

Assays:
[1] = target: soluble human BACE1 catalytic domain (Homo sapiens (Human), UniProt P56817); assay: BACE1 HTRF FRET Assay; format: biochemical; settings: Ki calculated from IC50 using the Cheng-Prusoff equation
Text: Na^+-Acetate pH 5.0; 1% Brij-35; Glycerol; Dimethyl Sulfoxide (DMSO); Recombinant human soluble BACE1 catalytic domain (>95% pure); APP Swedish mutant peptide substrate (QSY7-APP^swe-Eu): QSY7-[…]-Europium-amide.
A homogeneous time-resolved FRET assay can be used to determine IC50 values for inhibitors of the soluble human BACE1 catalytic domain. This assay monitors the increase of 620 nm fluorescence that resulted from BACE1 cleavage of an APPswedish APP^swe mutant peptide FRET substrate (QSY7-[…]-Europium-amide). This substrate contains an N-terminal QSY7 moiety that serves as a quencher of the C-terminal Europium fluorophore (620 nm Em). In the absence of enzyme activity, 620 nm fluorescence is low in the assay and increased linearly over 3 hours in the presence of uninhibited BACE1 enzyme Inhibition of BACE1 cleavage of the QSY7-APP^swe-Eu substrate by inhibitors is manifested as a suppression of 620 nm fluorescence.
Reactions are initiated by addition of 10 μl of 600 nM QSY7-APP^swe-Eu substrate (200 nM final) to give a final reaction volume of 30 μl in a 384 well Nunc HTRF plate. The reactions are incubated at 30° C. for 1.5 hours. The 620 nm fluorescence is then read on a Rubystar HTRF plate reader (BMG Labtechnologies) using a […] delay followed by a 400 millisecond acquisition time window. Inhibitor IC50 values are derived from non-linear regression analysis of concentration response curves.

[2] = target: purified human autoBACE-2 (Homo sapiens, UniProt Q9Y5Z0); assay: BACE-2 Assay (BACE-HTRF assay); format: biochemical; settings: Ki calculated from IC50 using the Cheng-Prusoff equation; read-out: BACE2 Ki
Protocol: Following laser excitation of sample wells at 320 nm, the fluorescence signal at 620 nm is collected for 400 ms following a 50 μs delay on a RUBYstar HTRF plate reader (BMG Labtechnologies). Raw RFU data is normalized to maximum (1.0 nM BACE/DMSO) and minimum (no enzyme/DMSO)RFU values. […] The Ki values are calculated from the IC50 using the Cheng-Prusoff equation.

purified human autoBACE-2, sequence (Q9Y5Z0 63-518 limits assumed): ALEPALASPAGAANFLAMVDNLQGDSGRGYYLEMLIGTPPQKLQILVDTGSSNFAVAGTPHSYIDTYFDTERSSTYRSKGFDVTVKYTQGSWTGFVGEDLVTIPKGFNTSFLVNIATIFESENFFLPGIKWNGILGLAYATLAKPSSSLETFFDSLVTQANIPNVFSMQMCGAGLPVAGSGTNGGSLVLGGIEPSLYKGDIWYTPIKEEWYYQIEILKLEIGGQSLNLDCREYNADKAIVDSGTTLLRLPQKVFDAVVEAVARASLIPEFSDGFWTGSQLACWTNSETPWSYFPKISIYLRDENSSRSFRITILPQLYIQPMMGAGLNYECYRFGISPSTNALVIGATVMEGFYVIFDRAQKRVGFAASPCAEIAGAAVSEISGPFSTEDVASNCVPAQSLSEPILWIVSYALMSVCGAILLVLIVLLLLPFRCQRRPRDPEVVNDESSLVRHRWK
soluble human BACE1 catalytic domain, sequence (P56817 75-416): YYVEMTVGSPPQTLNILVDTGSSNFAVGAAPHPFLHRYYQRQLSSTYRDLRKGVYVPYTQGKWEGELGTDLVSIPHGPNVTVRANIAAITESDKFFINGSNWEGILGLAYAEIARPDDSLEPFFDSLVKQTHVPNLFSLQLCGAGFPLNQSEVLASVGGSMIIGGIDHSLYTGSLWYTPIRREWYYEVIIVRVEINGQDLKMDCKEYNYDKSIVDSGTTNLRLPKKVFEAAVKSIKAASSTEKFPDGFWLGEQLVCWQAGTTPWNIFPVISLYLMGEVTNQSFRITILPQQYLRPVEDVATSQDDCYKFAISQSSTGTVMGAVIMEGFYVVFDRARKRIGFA

Ki [1] [nM] | Ki [2] [nM] | Structure (SMILES)
13 | 1.9 | CN1C(=N)N[C@@]2(c3cc(NC(=O)c4ccc(F)cn4)ccc3F)COC[C@H]2S1(=O)=O [Example 1]
3530 | 491 | CN1C(=N)N[C@]2(c3cc(NC(=O)c4ccc(F)cn4)ccc3F)COC[C@@H]2S1(=O)=O [Example 1a]
18.2 | 8.2 | COc1ccc(C(=O)Nc2ccc(F)c([C@]34COC[C@H]3S(=O)(=O)N(C)C(=N)N4)c2)nc1 [Example 3]
872 | 476 | COc1ccc(C(=O)Nc2ccc(F)c([C@@]34COC[C@@H]3S(=O)(=O)N(C)C(=N)N4)c2)nc1 [Example 3a]
54.1 | 48.4 | COc1cnc(C(=O)Nc2ccc(F)c([C@]34COC[C@H]3S(=O)(=O)N(C)C(=N)N4)c2)cn1 [Example 4]
1330 | 1510 | COc1cnc(C(=O)Nc2ccc(F)c([C@@]34COC[C@@H]3S(=O)(=O)N(C)C(=N)N4)c2)cn1 [Example 4a]
5.07 | 1.3 | CN1C(=N)N[C@@]2(c3cc(NC(=O)c4ccc(Cl)cn4)ccc3F)COC[C@H]2S1(=O)=O [Example 5]
197 | 55.2 | CN1C(=N)N[C@]2(c3cc(NC(=O)c4ccc(Cl)cn4)ccc3F)COC[C@@H]2S1(=O)=O [Example 5a]
9.79 | 19.5 | CN1C(=N)N[C@@]2(c3cc(NC(=O)c4ccc(C(F)(F)F)cn4)ccc3F)COC[C@H]2S1(=O)=O [Example 6]
354 | 473 | CN1C(=N)N[C@]2(c3cc(NC(=O)c4ccc(C(F)(F)F)cn4)ccc3F)COC[C@@H]2S1(=O)=O [Example 6a]
28.4 | 55 | CN1C(=N)N[C@@]2(c3cc(NC(=O)c4cnc(C(F)(F)F)cn4)ccc3F)COC[C@H]2S1(=O)=O [Example 6d]
15.8 | 6.9 | COc1cnc(C(=O)Nc2ccc(F)c([C@]34COC[C@H]3S(=O)(=O)N(C)C(=N)N4)c2)c(F)c1 [Example 6e]

Structure (SMILES) | Ki [1] [nM] | Ki [2] [nM]
CN1C(=N)NC2(c3ccccc3F)COCC2S1(=O)=O (centres unmarked) [Example 6f] | 7850 | 4200
